Source: patent US20060147382A1, “Synergistic combination comprising roflumilast and an anticholinergic agent selected from ipratropium, oxitropium and tiotropium salts for the treatment of respiratory diseases” (Altana Pharma AG, priority 2003, published 2006)

Test system: methacholine-induced bronchoconstriction in guinea pigs
Test: Inhibition of methacholine-induced bronchoconstriction in anaesthetized, mechanically ventilated guinea pigs
Type: in vivo, guinea pig
Conditions: for Effect on methacholine-induced bronchospasm (in words): versus placebo, ANOVA and Dunnett's test, ROFLUMILAST 4 mg/kg intratracheally, tiotropium-bromide 1 μg/kg i.v.
Procedure: Inhibition of Methacholine-Induced Bronchoconstriction in Guinea Pigs by ROFLUMILAST in combination with tiotropium-bromide
To assess the inhibitory effect of tiotropium-bromide, ROFLUMILAST, and the combination of both compounds on methacholine-induced bronchoconstriction in anaesthetized, mechanically ventilated guinea pigs.
Male Dunkin Hartley guinea pigs; body weight 350-450 g when performing the experiments.
75 min before methacholine-induced bronchospasm (at −75 min) animals were anaesthetized with urethane i.p. (1.2 g/kg). At −55 min for I.v. injections the right jugular vein and for ventilation the trachea was cannulated. At −45 min NaCl 0.9% or tiotropium-bromide was administered I.v. (1 μg/kg). At −30 min lactose (10 mg/kg) or ROFLUMILAST (4 mg/kg) mixed with lactose was administered intratracheally by a dry powder aerolizer. At −10 min pancuronium-bromide (1.5 mg/kg) was administered I.v. to abolish spontaneous breathing. Animals were mechanically ventilated with 60 breath/min and a tidal volume of 7 ml/kg. Dynamic lung compliance (COM) and airway conductance (CON) were calculated with the help of a computer system from airflow and ventilation pressure signals. At t=0 min methacholine was administered i.v. (60 μg/kg) to induce bronchoconstriction.
COM and CON were determined up to 120 s after methacholine-induced bronchospasm. AUCs for 0 to 120s were determined. Inhibition was calculated based on the AUC data. Data are shown as mean ±SEM. Results were taken to be significant if p<0.05 versus placebo (ANOVA and Dunnett's multiple comparison test)

[1] = male Dunkin Hartley guinea pigs, methacholine 60 μg/kg i.v., ROFLUMILAST 4 mg/kg intratracheally at -30 min, tiotropium-bromide 1 μg/kg i.v. at -45 min

## O=C(Nc1c(Cl)cncc1Cl)c1ccc(OC(F)F)c(OCC2CC2)c1 [ROFLUMILAST, 3-cyclopropylmethoxy-4-difluoromethoxy-N-(3,5-dichloropyrid-4-yl)benzamide]
[1]
  Inhibition of methacholine-induced airway conductance (CON) decrease, based on AUC 0 to 120 s: 5.6%
  Effect on methacholine-induced bronchospasm (in words): no significant effect

## C[N+]1(C)[C@@H]2C[C@@H](OC(=O)C(O)(c3cccs3)c3cccs3)C[C@H]1[C@@H]1O[C@@H]12 [tiotropium-bromide]
[1]
  Inhibition of methacholine-induced airway conductance (CON) decrease, based on AUC 0 to 120 s: 5.9%
  Inhibition of methacholine-induced dynamic lung compliance (COM) decrease, based on AUC 0 to 120 s: 12%
  Effect on methacholine-induced bronchospasm (in words): no significant effect
